Reference: article PMC10461969 (bioRxiv, 2023)
Like-named read-outs stand apart in the source and are kept apart here.

Assays:
SIRT5 [1] = target: T1, SIRT5 (Homo sapiens, UniProt Q9NXA8); conditions: read-out: IC50 Pub., Succinyl; cited from earlier work
T1 sequence (Q9NXA8 37-310): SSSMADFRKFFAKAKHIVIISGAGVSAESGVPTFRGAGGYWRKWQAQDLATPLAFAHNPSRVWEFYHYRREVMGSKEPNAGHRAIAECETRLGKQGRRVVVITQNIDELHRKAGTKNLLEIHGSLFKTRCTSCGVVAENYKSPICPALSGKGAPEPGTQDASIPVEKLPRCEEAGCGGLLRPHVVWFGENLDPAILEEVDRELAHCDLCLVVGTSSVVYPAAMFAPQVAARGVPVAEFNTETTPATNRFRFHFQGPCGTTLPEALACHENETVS

SIRT5 [2] = target: T1, SIRT5; assay: SIRTify cell-free inhibitor assay, SIRT5; conditions: for IC50: 250 μM NAD+
SIRT5 [3] = target: T1, SIRT5; assay: SIRTify in live; format: cell-based; conditions: intact HepG2-LgBiT cells with furimazine
SIRT5 [4] = target: T1, SIRT5; assay: SIRTify in live; format: cell-based; conditions: intact KG1a-LgBiT cells with furimazine
Sirt5 [5] = target: T2, Sirt5 (Danio rerio, UniProt Q6DHI5); assay: Endogenous Sirt5 desuccinylation activity in zebrafish embryos; format: in vivo, zebrafish (Danio rerio); conditions: embryos injected with LgBiT and peptide; endurazine
T2 sequence (Q6DHI5 33-305): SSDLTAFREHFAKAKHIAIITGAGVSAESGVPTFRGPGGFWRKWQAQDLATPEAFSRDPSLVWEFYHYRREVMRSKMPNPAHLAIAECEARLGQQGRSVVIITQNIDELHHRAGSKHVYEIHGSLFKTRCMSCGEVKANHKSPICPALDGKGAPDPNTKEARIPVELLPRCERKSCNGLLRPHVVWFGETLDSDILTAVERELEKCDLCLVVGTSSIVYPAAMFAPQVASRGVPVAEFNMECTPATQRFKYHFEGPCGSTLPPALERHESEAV

Row | lower IC50 for deglutarylase activity compared to desuccinylase activity (SIRT5 [2]) | IC50 (SIRT5 [2]; Glutaryl substrate (deglutarylase activity)) | IC50 (SIRT5 [2]; Succinyl substrate (desuccinylase activity)) | luminescence versus peptide concentration (cell permeability) (SIRT5 [3]) | luminescence versus peptide concentration (cell permeability) (SIRT5 [4]) | luminescence over 90 minutes (endogenous desuccinylation) (Sirt5 [5]) | Compound | IC50 (SIRT5 [1])
1 | approximately 3 fold | 47 ± 2 nM | 102 ± 8 nM |  |  |  | O=C(O)CCNC(=S)NCCCC[C@H](NS(=O)(=O)c1cccc(F)c1)C(=O)N[C@@H](Cc1c[nH]c2ccccc12)C(=O)NC1CCC1 | 110 nM
2 |  |  |  | much lower signal | much lower signal |  | H2N-VSGWRLF(KGlut)(KGlut)ISRRRR-OH [p86-Glutaryl8,9-R4] | 
3 |  |  |  | much lower signal | much lower signal | slight increase in luminescence | H2N-VSGWRLF(KSuc)(KSuc)ISRRRR-OH [p86-Succinyl8,9-R4] | 

Row | Compound | lower IC50 for deglutarylase activity compared to desuccinylase activity (SIRT5 [2]) | IC50 (SIRT5 [2]; Glutaryl substrate (deglutarylase activity)) | IC50 (SIRT5 [2]; Succinyl substrate (desuccinylase activity)) | luminescence versus peptide concentration (cell permeability) (SIRT5 [3]) | luminescence versus peptide concentration (cell permeability) (SIRT5 [4]) | luminescence over 90 minutes (endogenous desuccinylation) (Sirt5 [5]) | IC50 (SIRT5 [1])
4 | CC[C@H](C)[C@H](NC(=O)[C@H](CCCCN)NC(=O)[C@H](CCCCN)NC(=O)[C@H](Cc1ccccc1)NC(=O)[C@H](CC(C)C)NC(=O)[C@H](CCCNC(=N)N)NC(=O)[C@H](Cc1c[nH]c2ccccc12)NC(=O)CNC(=O)[C@H](CO)NC(=O)[C@@H](N)C(C)C)C(=O)N[C@@H](CO)C(=O)N[C@@H](CCCNC(=N)N)C(=O)N[C@@H](CCCNC(=N)N)C(=O)N[C@@H](CCCNC(=N)N)C(=O)N[C@@H](CCCNC(=N)N)C(=O)O [p86-R4] |  |  |  | directly proportional to p86-R4 concentration | directly proportional to p86-R4 concentration |  | 
